Assays:
Lck (h) = Lck (h) (Homo sapiens, UniProt P06239); assay: Lck human STE kinase enzymatic radiometric assay; assay type: biochemical; settings: read-out: Lck IC50 nM Range
Description: (b) Lck Human STE Kinase Enzymatic Radiometric Assay
Lck (h) is incubated with 50 mM Tris pH 7.5, 0.1 mM EGTA, 0.1 mM Na3VO4, 250 uM KVEKIGEGTYGVVYK (Cdc2 peptide), 10 mM MgAcetate and [gamma-33P]-ATP (specific activity and concentration as required). The reaction is initiated by the addition of the Mg/ATP mix. After incubation for 40 minutes at room temperature, the reaction is stopped by the addition of phosphoric acid to a concentration of 0.5%, 10 μL of the reaction is then spotted onto a P30 filtermat and washed four times for 4 minutes in 0.425% phosphoric acid and once in methanol prior to drying and scintillation counting. For more details on the kinase assay procedures see: Gao, Y. et. al.; Biochem J., 451 (2): 313-328, 2013.

[1] = target: T1, Recombinant (1-346) HPK1 (h) (Homo sapiens, UniProt Q92918); assay: HPK1 human STE kinase enzymatic radiometric assay; assay type: biochemical; settings: read-out: HPK1 IC50 nM Range
T1 construct: Recombinant (1-346) HPK1 (h) is incubated with 8 mM MOPS pH 7.0
T1 sequence (Q92918 1-346): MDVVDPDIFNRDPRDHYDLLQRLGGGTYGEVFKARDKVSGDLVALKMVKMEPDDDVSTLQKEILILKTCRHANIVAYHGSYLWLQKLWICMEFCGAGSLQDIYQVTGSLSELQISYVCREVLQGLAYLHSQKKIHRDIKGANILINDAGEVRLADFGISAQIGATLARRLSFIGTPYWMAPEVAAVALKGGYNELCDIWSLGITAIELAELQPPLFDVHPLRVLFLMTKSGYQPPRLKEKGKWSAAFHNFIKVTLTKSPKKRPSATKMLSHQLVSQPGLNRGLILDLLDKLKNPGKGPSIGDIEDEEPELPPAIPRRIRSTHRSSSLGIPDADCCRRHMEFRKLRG
Method in brief: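 Compounds in 3-fold, 9-point serial dilution; kinase (residues 1-346) phosphorylates myelin basic protein (0.33 mg/mL) using [gamma-33P]-ATP at pH 7.0 (MOPS, EDTA, Mg acetate) for 40 min, room temperature. Acid-quenched mixture filtered onto P30 mats; incorporated radioactivity read by scintillation counting.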

Lck (h), sequence (P06239 whole entry): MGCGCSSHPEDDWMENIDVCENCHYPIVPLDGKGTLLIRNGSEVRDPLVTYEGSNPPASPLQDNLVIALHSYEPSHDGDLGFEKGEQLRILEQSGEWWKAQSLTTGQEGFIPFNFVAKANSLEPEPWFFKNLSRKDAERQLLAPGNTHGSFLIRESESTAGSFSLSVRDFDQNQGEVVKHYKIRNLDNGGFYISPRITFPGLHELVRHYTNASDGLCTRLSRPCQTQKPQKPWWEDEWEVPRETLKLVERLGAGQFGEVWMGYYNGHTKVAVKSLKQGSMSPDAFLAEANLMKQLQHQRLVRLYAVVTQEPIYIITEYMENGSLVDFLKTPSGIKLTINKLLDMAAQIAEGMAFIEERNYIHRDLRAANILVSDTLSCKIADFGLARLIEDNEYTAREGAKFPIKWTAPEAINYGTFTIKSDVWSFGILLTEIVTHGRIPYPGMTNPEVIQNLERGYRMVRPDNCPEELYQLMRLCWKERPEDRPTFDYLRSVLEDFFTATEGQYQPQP

IC50 (Lck (h)) | IC50 [1] | SMILES
> 1000 nM | 0.1 to 10 nM | Cc1nc2cc(-c3nc(-c4ccc(C5CCOCC5)c(CN(C)C)c4)c(F)nc3N)cc(F)c2c(=O)[nH]1 [Example I-91, 7-(3-amino-6-(3-((dimethylamino)methyl)-4-(tetrahydro-2H-pyran-4-yl)phenyl)-5-fluoropyrazin-2-yl)-5-fluoro-2-methylquinazolin-4(3H)-one]
101 to 1000 nM | 0.1 to 10 nM | CC(C)N1CCN(c2ccc(-c3nc(-c4ccc5c(=O)[nH]cc(Cl)c5c4)c(N)nc3F)cc2)CC1 [Example I-78, 6-(3-amino-5-fluoro-6-(4-(4-isopropylpiperazin-1-yl)phenyl)pyrazin-2-yl)-4-chloroisoquinolin-1(2H)-one]
101 to 1000 nM | 0.1 to 10 nM | CC(C1CC1)N1CCN(c2ccc(-c3nc(-c4cc(F)c5c(c4)CCNC5=O)c(N)nc3F)cc2)CC1 (single isomer, unassigned) [Example I-29, 6-(3-amino-6-(4-(4-(1-cyclopropylethyl)piperazin-1-yl)phenyl)-5-fluoropyrazin-2-yl)-8-fluoro-3,4-dihydroisoquinolin-1(2H)-one]
> 1000 nM | 0.1 to 10 nM | Nc1nc(F)c(-c2ccc(N3CCOCC3)cc2)nc1-c1cc(F)c2c(=O)[nH]ccc2c1 [Example I-36, 6-(3-amino-5-fluoro-6-(4-morpholinophenyl)pyrazin-2-yl)-8-fluoroisoquinolin-1(2H)-one]
> 1000 nM | 0.1 to 10 nM | CN(C)Cc1cc(-c2nc(-c3cc4c(cc3F)C(=O)NCC4)c(N)nc2F)ccc1C1CCOCC1 [Example I-60, 6-(3-amino-6-(3-((dimethylamino)methyl)-4-(tetrahydro-2H-pyran-4-yl)phenyl)-5-fluoropyrazin-2-yl)-7-fluoro-3,4-dihydroisoquinolin-1(2H)-one]
> 1000 nM | 11 to 100 nM | CC(C)N1CCN(c2ccc(-c3nc(-c4ccc5c(=O)[nH]ncc5c4)c(N)nc3F)cc2)CC1 [Example I-38, 6-(3-amino-5-fluoro-6-(4-(4-isopropylpiperazin-1-yl)phenyl)pyrazin-2-yl)phthalazin-1(2H)-one]
> 1000 nM | 0.1 to 10 nM | Cc1[nH]c(=O)c2ccc(-c3nc(-c4ccc(C5CCOCC5)c(CN(C)C)c4)c(F)nc3N)cc2c1F [Example I-97, 6-(3-amino-6-(3-((dimethylamino)methyl)-4-(tetrahydro-2H-pyran-4-yl)phenyl)-5-fluoropyrazin-2-yl)-4-fluoro-3-methylisoquinolin-1(2H)-one]
> 1000 nM | 0.1 to 10 nM | Cc1nc2cc(-c3nc(-c4ccc(C5CCOCC5)c(CN(C)C)c4)c(F)nc3N)ccc2c(=O)[nH]1 [Example I-92, 7-(3-amino-6-(3-((dimethylamino)methyl)-4-(tetrahydro-2H-pyran-4-yl)phenyl)-5-fluoropyrazin-2-yl)-2-methylquinazolin-4(3H)-one]
> 1000 nM | 0.1 to 10 nM | CN(C)Cc1cc(-c2nc(-c3ccc4c(=O)[nH]cc(F)c4c3)c(N)nc2F)ccc1C1CCOCC1 [Example I-42, 6-(3-amino-6-(3-((dimethylamino)methyl)-4-(tetrahydro-2H-pyran-4-yl)phenyl)-5-fluoropyrazin-2-yl)-4-fluoroisoquinolin-1(2H)-one]
101 to 1000 nM | 0.1 to 10 nM | CC(C)N1CCN(c2ccc(-c3nc(-c4cc(F)c5c(=O)[nH]ccc5c4)c(N)nc3F)cc2)CC1 [Example I-21, 6-(3-amino-5-fluoro-6-(4-(4-isopropylpiperazin-1-yl)phenyl)pyrazin-2-yl)-8-fluoroisoquinolin-1(2H)-one]
> 1000 nM | 0.1 to 10 nM | CN1C[C@@H]2C[C@]2(c2ccc(-c3nc(-c4cc5c(cc4F)C(=O)NCC5)c(N)nc3F)cc2)C1 [Example I-5, 6-(3-amino-5-fluoro-6-(4-((1S,5R)-3-methyl-3-azabicyclo[3.1.0]hexan-1-yl)phenyl)pyrazin-2-yl)-7-fluoro-3,4-dihydroisoquinolin-1(2H)-one]
> 1000 nM | 0.1 to 10 nM | CC(C)N1CCN(c2ccc(-c3nc(-c4cc(F)c5c(=O)[nH]cc(F)c5c4)c(N)nc3F)cc2)CC1 [Example I-85, 6-(3-amino-5-fluoro-6-(4-(4-isopropylpiperazin-1-yl)phenyl)pyrazin-2-yl)-4,8-difluoroisoquinolin-1(2H)-one]
> 1000 nM | 0.1 to 10 nM | Nc1nc(F)c(-c2ccc(N3CCOCC3)c(CN3CCC3)c2)nc1-c1cc2c(cc1F)C(=O)NCC2 [Example I-145, 6-(3-amino-6-(3-(azetidin-1-ylmethyl)-4-morpholinophenyl)-5-fluoropyrazin-2-yl)-7-fluoro-3,4-dihydroisoquinolin-1(2H)-one]
> 1000 nM | 0.1 to 10 nM | CN(C)Cc1cc(-c2nc(-c3ccc4c(=O)[nH]cc(Cl)c4c3)c(N)nc2F)ccc1C1CCOCC1 [Example I-154, 6-(3-amino-6-(3-((dimethylamino)methyl)-4-(tetrahydro-2H-pyran-4-yl)phenyl)-5-fluoropyrazin-2-yl)-4-chloroisoquinolin-1(2H)-one]
> 1000 nM | 0.1 to 10 nM | CN(C)Cc1cc(-c2nc(-c3cc4c(F)c[nH]c(=O)c4cc3F)c(N)nc2F)ccc1N1CCOCC1 [Example I-142, 6-(3-amino-6-(3-((dimethylamino)methyl)-4-morpholinophenyl)-5-fluoropyrazin-2-yl)-4,7-difluoroisoquinolin-1(2H)-one]
> 1000 nM | 0.1 to 10 nM | CN(C)Cc1cc(-c2nc(-c3ccc4c(c3)C(F)(F)CNC4=O)c(N)nc2F)ccc1C1CCOCC1 [Example I-223, 6-(3-amino-6-(3-((dimethylamino)methyl)-4-(tetrahydro-2H-pyran-4-yl)phenyl)-5-fluoropyrazin-2-yl)-4,4-difluoro-3,4-dihydroisoquinolin-1(2H)-one]
> 1000 nM | 0.1 to 10 nM | Nc1nc(F)c(-c2ccc(N3CCOCC3)c(CN3CCC3)c2)nc1-c1cc(F)c2c(c1)CCNC2=O [Example I-146, 6-(3-amino-6-(3-(azetidin-1-ylmethyl)-4-morpholinophenyl)-5-fluoropyrazin-2-yl)-8-fluoro-3,4-dihydroisoquinolin-1(2H)-one]
> 1000 nM | 0.1 to 10 nM | Cc1[nH]c(=O)c2c(F)cc(-c3nc(-c4ccc(C5CCOCC5)c(CN(C)C)c4)c(F)nc3N)cc2c1F [Example I-117, 6-(3-amino-6-(3-((dimethylamino)methyl)-4-(tetrahydro-2H-pyran-4-yl)phenyl)-5-fluoropyrazin-2-yl)-4,8-difluoro-3-methylisoquinolin-1(2H)-one]
> 1000 nM | 0.1 to 10 nM | Cc1cc2cc(-c3nc(-c4ccc(N5CCN(C(C)C)CC5)cc4)c(F)nc3N)cc(F)c2c(=O)[nH]1 [Example I-67, 6-(3-amino-5-fluoro-6-(4-(4-isopropylpiperazin-1-yl)phenyl)pyrazin-2-yl)-8-fluoro-3-methylisoquinolin-1(2H)-one]
> 1000 nM | 0.1 to 10 nM | CCN1CCN(c2ccc(-c3nc(-c4ccc5c(=O)[nH]ccc5c4)c(N)nc3F)cc2)CC1 [Example I-32, 6-(3-amino-6-(4-(4-ethylpiperazin-1-yl)phenyl)-5-fluoropyrazin-2-yl)isoquinolin-1(2H)-one]
> 1000 nM | 0.1 to 10 nM | Cc1c[nH]c(=O)c2ccc(-c3nc(-c4ccc(C5CCOCC5)c(CN(C)C)c4)c(F)nc3N)cc12 [Example I-98, 6-(3-amino-6-(3-((dimethylamino)methyl)-4-(tetrahydro-2H-pyran-4-yl)phenyl)-5-fluoropyrazin-2-yl)-4-methylisoquinolin-1(2H)-one]
101 to 1000 nM | 0.1 to 10 nM | Nc1nc(F)c(-c2ccc(C3CCOCC3)c(CN3CCC3)c2)nc1-c1cc(F)c2c(c1)CCNC2=O [Example I-171, 6-(3-amino-6-(3-(azetidin-1-ylmethyl)-4-(tetrahydro-2H-pyran-4-yl)phenyl)-5-fluoropyrazin-2-yl)-8-fluoro-3,4-dihydroisoquinolin-1(2H)-one]
> 1000 nM | 11 to 100 nM | CC(C)S(=O)(=O)c1ccc(-c2nc(-c3ccc4c(=O)[nH]cc(F)c4c3)c(N)nc2F)cc1CN(C)C [Example I-293, 6-(3-amino-6-(3-((dimethylamino)methyl)-4-(isopropylsulfonyl)phenyl)-5-fluoropyrazin-2-yl)-4-fluoroisoquinolin-1(2H)-one]
101 to 1000 nM | 0.1 to 10 nM | CN(C)Cc1cc(-c2nc(-c3ccc4c(c3)C3(CC3)CNC4=O)c(N)nc2F)ccc1C1CCOCC1 [Example I-110, 6′-(3-amino-6-(3-((dimethylamino)methyl)-4-(tetrahydro-2H-pyran-4-yl)phenyl)-5-fluoropyrazin-2-yl)-2′,3′-dihydro-1′H-spiro[cyclopropane-1,4′-isoquinolin]-1′-one]

Source: patent US20240425479A1, “HALO-SUBSTITUTED AMINO AZA-HETEROARYL COMPOUNDS AS INHIBITORS OF THE HAEMATOPOIETIC PROGENITOR KINASE 1 (HPK1)” (priority 2021, published 2024)
